Source: paper PMC12169679 (Journal of Medicinal Chemistry, 2025)

Tests used:
[1] = test system: EBOV-GP-pseudotype virus (pEBOV)
in vitro [2] = details: for CC50: African green monkey; for CC50 at 24 h: chlorocebus sabaeus
[3] = test system: EBOV-GP-pseudotype virus (pEBOV); assay: microbe, parasite or virus in culture; details: Zaire ebolavirus; for inhibition at 10 µM: Vero C1008, read-out: %inh@10 μM (pEBOV); for EC50: Vero C1008, read-out: EC50 (pEBOV)
[4] = test system: VSV-G-pseudotype virus (pVSV-G); assay: microbe, parasite or virus in culture; assay type: cell-based; details: Vesicular stomatitis virus; read-out: %inh@10µM (pVSV-G)
[5] = test system: wild-type EBOV (Orthoebolavirus zairense, Mayinga variant); details: for EC50: read-out: EC50 (EBOV)
[6] = pH 7.4
[7] = CD-1, mouse, pH 7.4
[8] = PAMPA
in vitro [9] = details: human, microsomes, pH 7.4
in vitro [10] = details: CD-1, mouse, microsomes, pH 7.4
[11] = test system: EBOV-GP-pseudotype virus (pEBOV); details: cited from earlier work
VeroE6 cells = details: cited from earlier work
in vitro [12] = details: PAMPA, pH 7.4
A549 cells = details: cited from earlier work
EBOV-GP protein = EBOV-GP protein (Zaire ebolavirus, UniProt Q05320); assay type: binding, Ebola virus
[13] = target: EBOV-GPcl/NPC1-domain C interaction (Zaire ebolavirus, UniProt Q05320); assay type: binding; details: 50 μM

Structure (SMILES): CCN(CC)CC(=O)Nc1ccccc1Sc1cc(Cl)ccc1[N+](=O)[O-] [compound 8, N-(2-((5-Chloro-2-nitrophenyl)thio)phenyl)-2-(diethylamino)acetamide]
- antiviral activity against pEBOV, in words [1]: inactive
- CC50 (in vitro [2]): > 200 µM
- inhibition at 10 µM [3]: -5%

Structure (SMILES): O=C(CNCc1ccccc1)Nc1ccccc1Sc1cc(Cl)ccc1[N+](=O)[O-] [compound 10, 2-(Benzylamine)-N-(2-((5-chloro-2-nitrophenyl)thio)phenyl)acetamide]
- antiviral activity against pEBOV, in words [1]: no activity
- CC50 (in vitro [2]): > 200 µM
- inhibition at 10 µM [3]: 18%

Structure (SMILES): O=C(CCN1CCCC1)Nc1ccccc1Sc1cc(Cl)ccc1[N+](=O)[O-] [compound 12, N-(2-((5-Chloro-2-nitrophenyl)thio)phenyl)-3-(pyrrolidin-1-yl)propanamide]
- inhibition at 10 µM [4]: 36%
- SI (pEBOV) (CC50/EC50) [1]: 61.2
- EC50 (EBOV) [5]: inactive
- metabolic stability in human liver microsomes CLint [6]: 12.5 ± 0.6 mL/min/mg protein
- metabolic stability in mouse liver microsomes CLint [7]: 260 ± 80 mL/min/mg protein
- prediction of CNS penetration [8]: SNC +
- CC50 at 24 h (in vitro [2]): 300 µM
- half-life at 10 µM (in vitro [9]): 46 ± 2 min
- half-life at 10 µM (in vitro [10]): 10 ± 3 min
- EC50 [3]: 4.9 µM

Structure (SMILES): CN1C(C(=O)Nc2ccccn2)=C(O)c2ccccc2S1(=O)=O [Piroxicam, reference compound]
- prediction of CNS penetration [8]: CNS−
- Pe ([8]; pH 7.4): 1.6 ± 0.7

Structure (SMILES): O=C(CN1CCCC1)NNc1ccccc1Sc1cc(Cl)ccc1[N+](=O)[O-] [SC073]
- SI (CC50/EC50), replicative EBOV [5]: 18.6
- EC50 [5]: 4.3 µM
- prediction of CNS penetration [8]: SNC +
- SI (CC50/EC50) of the hits, pEBOV [11]: 27.5
- CC50 (VeroE6 cells): 80 µM

Structure (SMILES): NC(=O)c1nc(F)c[nH]c1=O [Favipiravir, reference compound]
- CC50 (VeroE6 cells): > 1000 µM

Structure (SMILES): O=C(CCNCCc1ccccc1)Nc1ccccc1Sc1cc(Cl)ccc1[N+](=O)[O-] [compound 14, N-(2-((5-Chloro-2-nitrophenyl)thio)phenyl)-3-(phenethylamino)propanamide]
- antiviral activity against pEBOV, in words [1]: no activity
- CC50 (in vitro [2]): > 200 µM
- inhibition at 10 µM [3]: 23%

Structure (SMILES): O=C(CNCCC1CCN(Cc2ccccc2)CC1)Nc1ccccc1Sc1cc(Cl)ccc1[N+](=O)[O-] [compound 11, 2-((2-(1-Benzylpiperidin-4-yl)ethyl)amino)-N-(2-((5-chloro-2-nitrophenyl)thio)phenyl)acetamide]
- inhibition at 10 µM [4]: 38%
- SI (pEBOV) (CC50/EC50) [1]: 26.7
- SI (CC50/EC50), replicative EBOV [5]: 28.8
- EC50 [5]: 5.2 µM
- metabolic stability in human liver microsomes CLint [6]: 25 ± 4 mL/min/mg protein
- metabolic stability in mouse liver microsomes CLint [7]: 390 ± 70 mL/min/mg protein
- prediction of CNS penetration [8]: SNC +
- CC50 at 24 h (in vitro [2]): 150 µM
- half-life at 10 µM (in vitro [9]): 23 ± 4 min
- half-life at 10 µM (in vitro [10]): 6 ± 1 min
- EC50 [3]: 5.61 µM

Structure (SMILES): O=C(CN1CCCCC1)Nc1ccccc1Sc1cc(Cl)ccc1[N+](=O)[O-] [compound 9, N-(2-((5-Chloro-2-nitrophenyl)thio)phenyl)-2-(piperidin-1-yl)acetamide]
- antiviral activity against pEBOV, in words [1]: no activity
- CC50 (in vitro [2]): > 200 µM
- inhibition at 10 µM [3]: -10%

Structure (SMILES): O=C(CCNCCC1CCN(Cc2ccccc2)CC1)Nc1ccccc1Sc1cc(Cl)ccc1[N+](=O)[O-] [compound 15, 3-((2-(1-Benzylpiperidin-4-yl)ethyl)amino)-N-(2-((5-chloro-2-nitrophenyl)thio)phenyl)propanamide]
- antiviral activity against pEBOV, in words [1]: no activity
- CC50 at 24 h (in vitro [2]): 9 µM
- inhibition at 10 µM [3]: < 75%

Structure (SMILES): CCn1cc(C(=O)O)c(=O)c2cc(F)c(N3CCNCC3)nc21 [Enoxacin, reference compound]
- prediction of CNS penetration [8]: CNS−
- Papp (in vitro [12]): 1.2 ± 0.2 ×10⁻⁶ cm/s

Structure (SMILES): CCN(CC)CC(=O)NNc1ccccc1Sc1cc(Cl)ccc1[N+](=O)[O-] [SC198]
- SI (CC50/EC50), replicative EBOV [5]: 8.3
- EC50 [5]: 6 µM
- prediction of CNS penetration [8]: SNC +
- SI (CC50/EC50) of the hits, pEBOV [11]: 12.4
- CC50 (VeroE6 cells): 50 µM

Structure (SMILES): CN(C)CCCN1c2ccccc2Sc2ccccc21 [Promazine, reference compound]
- prediction of CNS penetration [8]: CNS+
- Papp (in vitro [12]): 9.1 ± 1.3 ×10⁻⁶ cm/s

Structure (SMILES): O=C(CCN1CCCC1)Nc1ccccc1Nc1cc(Cl)ccc1[N+](=O)[O-] [compound 17, N-(2-((5-Chloro-2-nitrophenyl)amino)phenyl)-3-(pyrrolidin-1-yl)propanamide]
- inhibition at 10 µM [4]: -133%
- SI (pEBOV) (CC50/EC50) [1]: 27.9
- SI (CC50/EC50), replicative EBOV [5]: 38.5
- EC50 [5]: 6.48 µM
- metabolic stability in human liver microsomes CLint [6]: 4.19 ± 0.02 mL/min/mg protein
- increase in metabolic stability in human microsomes [6]: 195%
- metabolic stability in mouse liver microsomes CLint [7]: 130 ± 17 mL/min/mg protein
- prediction of CNS penetration [8]: SNC +
- CC50 at 24 h (in vitro [2]): 250 µM
- half-life at 10 µM (in vitro [9]): 136.2 ± 0.5 min
- half-life at 10 µM (in vitro [10]): 20 ± 3 min
- EC50 [3]: 8.94 µM

Structure (SMILES): O=C(CCNCCc1ccccc1)Nc1ccccc1Nc1cc(Cl)ccc1[N+](=O)[O-] [compound 19, N-(2-((5-Chloro-2-nitrophenyl)amino)phenyl)-3-(phenethylamino)propanamide]
- antiviral activity against pEBOV, in words [1]: inactive
- CC50 at 24 h (in vitro [2]): 15 µM
- inhibition at 10 µM [3]: 15%

Structure (SMILES): CN(C)CCOc1ccc(/C(=C(/CCCl)c2ccccc2)c2ccccc2)cc1 [Toremifene, reference compound]
- SI (pEBOV) (CC50/EC50) [1]: d Toremifene was used as the reference of the assay EC50 = 0.17 μM (95% CI = 0.15–0.54 μM), CC50 (VeroE6 cells) = 10 μM, SI = 58.8 (lit^25: EC50 = 0.07 ± 0.05 μM, CC50 (A549 cells) = 16 μM, SI = 229).
- CC50 (in vitro [2]): 10 µM
- CC50 (A549 cells): 16 µM
- EC50 [3]: 0.17 µM

Structure (SMILES): O=C(CN1CCCC1)Nc1ccccc1Sc1cc(Cl)ccc1[N+](=O)[O-] [compound 7, N-(2-((5-Chloro-2-nitrophenyl)thio)phenyl)-2-(pyrrolidin-1-yl)acetamide]
- antiviral activity against pEBOV, in words [1]: inactive
- EC50 (EBOV) [5]: inactive
- CC50 (in vitro [2]): > 200 µM
- inhibition at 10 µM [3]: -2%

Structure (SMILES): O=C(CNCCC1CCN(Cc2ccccc2)CC1)Nc1ccccc1Nc1cc(Cl)ccc1[N+](=O)[O-] [compound 16, 2-((2-(1-Benzylpiperidin-4-yl)ethyl)amino)-N-(2-((5-chloro-2-nitrophenyl)amino)phenyl)acetamide]
- inhibition at 10 µM [4]: -44%
- STD-NMR competition with imipramine (EBOV-GP protein): both compounds target the same binding site of EBOV-GP
- binding to EBOV-GP by STD-NMR (EBOV-GP protein): binds to the protein
- effect on binding of EBOV-GP to NPC1 domain C (ELISA) [13]: interferes with the interaction between NPC1 and EBOV-GP
- EC50 [5]: 4.42 µM
- metabolic stability in human liver microsomes CLint [6]: 12 ± 2 mL/min/mg protein
- increase in metabolic stability in human microsomes [6]: 105%
- metabolic stability in mouse liver microsomes CLint [7]: 310 ± 50 mL/min/mg protein
- prediction of CNS penetration [8]: SNC +
- CC50 at 24 h (in vitro [2]): 10 µM
- half-life at 10 µM (in vitro [9]): 47 ± 7 min
- half-life at 10 µM (in vitro [10]): 8 ± 1 min
- EC50 [3]: 2.43 µM

Structure (SMILES): CCN(CC)CCC(=O)Nc1ccccc1Sc1cc(Cl)ccc1[N+](=O)[O-] [compound 13, N-(2-((5-Chloro-2-nitrophenyl)thio)phenyl)-3-(diethylamino)propanamide]
- inhibition at 10 µM [4]: -5%
- SI (pEBOV) (CC50/EC50) [1]: 16.9
- SI (CC50/EC50), replicative EBOV [5]: 3.3
- EC50 [5]: 44.5 µM
- metabolic stability in human liver microsomes CLint [6]: 36 ± 8 mL/min/mg protein
- metabolic stability in mouse liver microsomes CLint [7]: 390 ± 60 mL/min/mg protein
- prediction of CNS penetration [8]: SNC +
- CC50 at 24 h (in vitro [2]): 150 µM
- half-life at 10 µM (in vitro [9]): 16 ± 3 min
- half-life at 10 µM (in vitro [10]): 6.4 ± 0.9 min
- EC50 [3]: 8.87 µM

Structure (SMILES): Cn1c(=O)c2c(ncn2C)n(C)c1=O [Caffeine, reference compound]
- prediction of CNS penetration [8]: CNS−
- Papp (in vitro [12]): 1.5 ± 0.3 ×10⁻⁶ cm/s

Structure (SMILES): CCN(CC)CCC(=O)Nc1ccccc1Nc1cc(Cl)ccc1[N+](=O)[O-] [compound 18, N-(2-((5-Chloro-2-nitrophenyl)amino)phenyl)-3-(diethylamino)propanamide]
- inhibition at 10 µM [4]: 9%
- SI (pEBOV) (CC50/EC50) [1]: 19.6
- SI (CC50/EC50), replicative EBOV [5]: 5.2
- EC50 [5]: 28.7 µM
- metabolic stability in human liver microsomes CLint [6]: 9.1 ± 0.7 mL/min/mg protein
- increase in metabolic stability in human microsomes [6]: 294%
- metabolic stability in mouse liver microsomes CLint [7]: 180 ± 70 mL/min/mg protein
- prediction of CNS penetration [8]: SNC +
- CC50 at 24 h (in vitro [2]): 150 µM
- half-life at 10 µM (in vitro [9]): 63 ± 5 min
- half-life at 10 µM (in vitro [10]): 14 ± 6 min
- EC50 [3]: 7.65 µM
